Calls of active or inactive are those of the source. The rule behind the calls is not given here.

In this experiment the test system is Hemicentrotus pulcherrimus. As to the kind of experiment: Ability of the embryo (sea urchin, Hemicentrotus pulcherrimus) to form spicule deficient plutei when treated with the compound at a concentration of 0.4-12 uM; not active. It is filed as functional, organism-based.

As for `CC1=C[C@@]2(CC1)[C@H](NC=O)[C@H](C(C)C)CC[C@@H]2C`, the outcome was inactive.

Source of the values: ChEMBL document CHEMBL1134925, “Exiguamide, a new spirocyclic sesquiterpene from the marine sponge Geodia exigua that inhibits cell fate specification during sea urchin embryogenesis” (Bioorg Med Chem Lett, 2002).
